The first test has as its target T1, human LPA1 (Homo sapiens, UniProt Q92633).
T1 construct: expressed in transfected cells; host or cells: Chinese hamster ovary (CHO) cells
The test can be described thus: LPA1 functional antagonist assay (LPA-induced calcium flux). It counts as cell-based. The conditions noted are these: CHO cells overexpressing human LPA1, 10 nM LPA, read-out: hLPA1 IC50. As to the method:
The effectiveness of compounds of the present invention as LPA1 inhibitors can be determined in an LPA1 functional antagonist assay as follows:
Chinese hamster ovary cells overexpressing human LPA1 were plated overnight (15,000 cells/well) in poly-D-lysine coated 384-well microplates (Greiner bio-one, Cat #781946) in DMEM/F12 medium (Gibco, Cat #11039). Following overnight culture, cells were loaded with calcium indicator dye (AAT Bioquest Inc, Cat #34601) for 30 minutes at 37° C. The cells were then equilibrated to room temperature for 30 minutes before the assay. Test compounds solubilized in DMSO were transferred to 384 well non-binding surface plates (Corning, Cat #3575) using the Labcyte Echo acoustic dispense and diluted with assay buffer [1×HBSS with calcium/magnesium (Gibco Cat #14025-092), 20 mM HEPES (Gibco Cat #15630-080) and 0.1% fatty acid free BSA (Sigma Cat #A9205)] to a final concentration of 0.5% DMSO. Diluted compounds were added to the cells by FDSS6000 (Hamamatsu) at final concentrations ranging from 0.08 nM to 5 μM. and were then incubated for 20 min at room temperature at which time LPA (Avanti Polar Lipids Cat #857130C) was added at final concentrations of 10 nM to stimulate the cells. The compound IC50 value was defined as the concentration of test compound which inhibited 50% of the calcium flux induced by LPA alone. IC50 values were determined by fitting data to a 4-parameter logistic equation (GraphPad Prism, San Diego Calif.).
On the technique in general: A change in cytosolic calcium serves as a functional read-out for many receptors and channels.
T1 sequence (Q92633 whole entry): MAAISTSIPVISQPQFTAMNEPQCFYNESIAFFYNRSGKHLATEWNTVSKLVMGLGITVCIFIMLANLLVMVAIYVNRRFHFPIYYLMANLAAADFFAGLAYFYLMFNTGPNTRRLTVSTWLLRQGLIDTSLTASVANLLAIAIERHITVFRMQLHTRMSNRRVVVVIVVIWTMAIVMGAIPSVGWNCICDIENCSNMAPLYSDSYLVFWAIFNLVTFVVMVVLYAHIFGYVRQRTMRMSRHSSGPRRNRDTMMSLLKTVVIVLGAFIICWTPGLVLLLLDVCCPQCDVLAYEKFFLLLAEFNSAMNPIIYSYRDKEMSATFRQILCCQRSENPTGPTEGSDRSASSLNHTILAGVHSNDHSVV
Take `CCc1nc(-c2cnn(C)c2CNc2nccc(OCCCF)n2)ncc1O[C@H]1CCC[C@H](C(=O)O)C1` [Example 25, (1S,3S)-3-((4-ethyl-2-(5-(((4-(3-fluoropropoxy)pyrimidin-2-yl)amino)methyl)-1-methyl-1H-pyrazol-4-yl)pyrimidin-5-yl)oxy)cyclohexane-1-carboxylic acid]: the IC50 (usually the concentration needed to halve the response being measured) was 18 nM.
On to `CCc1nc(-c2cnn(C)c2CNc2nccc(OCC(C)(F)F)n2)ncc1O[C@H]1CCC[C@H](C(=O)O)C1` [Example 26], for which the 50% inhibitory concentration (IC50) came out at 15 nM.
As for `CCc1nc(-c2cnn(C)c2CNc2nccc(OCCOC)n2)ncc1O[C@H]1CCC[C@H](C(=O)O)C1` [Example 27, (1S,3S)-3-((4-ethyl-2-(5-(((4-(2-methoxyethoxy)pyrimidin-2-yl)amino)methyl)-1-methyl-1H-pyrazol-4-yl)pyrimidin-5-yl)oxy)cyclohexane-1-carboxylic acid], the IC50 is 61 nM.
Regarding `CCOc1ccnc(NCc2c(-c3ncc(O[C@H]4CCC[C@H](C(=O)O)C4)cn3)cnn2C)n1` [Example 28, (1S,3S)-3-((2-(5-(((4-ethoxypyrimidin-2-yl)amino)methyl)-1-methyl-1H-pyrazol-4-yl)pyrimidin-5-yl)oxy)cyclohexane-1-carboxylic acid], the IC50 stood at 23 nM.
In the case of `CCOc1ccnc(N(C)Cc2c(-c3ncc(O[C@H]4CCC[C@H](C(=O)O)C4)cn3)cnn2C)n1` [Example 29], the IC50 was 151 nM.
As for `Cc1nc(-c2cnn(C)c2CNc2nccc(OC3CC(F)(F)C3)n2)ncc1O[C@H]1CCC[C@H](C(=O)O)C1` [Example 31, (1S,3S)-3-((2-(5-(((4-(3,3-difluorocyclobutoxy)pyrimidin-2-yl)amino)methyl)-1-methyl-1H-pyrazol-4-yl)-4-methylpyrimidin-5-yl)oxy)cyclohexane-1-carboxylic acid], the IC50 amounted to 122 nM.
In the case of `Cc1nc(-c2cnn(C)c2CNc2ccnc(OC3CC(F)(F)C3)n2)ncc1O[C@H]1CCC[C@H](C(=O)O)C1` [Example 32, (1S,3S)-3-((2-(5-(((2-(3,3-difluorocyclobutoxy)pyrimidin-4-yl)amino)methyl)-1-methyl-1H-pyrazol-4-yl)-4-methylpyrimidin-5-yl)oxy)cyclohexane-1-carboxylic acid], the IC50 came to 619 nM.
Regarding `Cc1nc(-c2cnn(C)c2CNc2nccc(OCC(C)F)n2)ncc1O[C@H]1CCC[C@H](C(=O)O)C1` (stereo partly drawn) [Example 33, (1S,3S)-3-((2-(5-(((4-(2-fluoropropoxy)pyrimidin-2-yl)amino)methyl)-1-methyl-1H-pyrazol-4-yl)-4-methylpyrimidin-5-yl)oxy)cyclohexane-1-carboxylic acid], the IC50 amounted to 21 nM.
For `COCCOc1ccnc(NCc2c(-c3ncc(O[C@H]4CCC[C@H](C(=O)O)C4)c(C)n3)cnn2C)n1` [Example 34, (1S,3S)-3-((2-(5-(((4-(2-methoxyethoxy)pyrimidin-2-yl)amino)methyl)-1-methyl-lH-pyrazol-4-yl)-4-methylpyrimidin-5-yl)oxy)cyclohexane-1-carboxylic acid], the IC50 was found to be 78 nM.
As to `CCc1ccnc(NCc2c(-c3ncc(O[C@H]4CCC[C@H](C(=O)O)C4)c(C)n3)cnn2C)n1` [Example 35, (1S,3S)-3-((2-(5-(((4-ethylpyrimidin-2-yl)amino)methyl)-1-methyl-1H-pyrazol-4-yl)-4-methylpyrimidin-5-yl)oxy)cyclohexane-1-carboxylic acid], the IC50 came to 207 nM.
In the case of `COCCCOc1ccnc(NCc2c(-c3ncc(O[C@H]4CCC[C@H](C(=O)O)C4)c(C)n3)cnn2C)n1` [Example 36, (1S,3S)-3-((2-(5-(((4-(3-methoxypropoxy)pyrimidin-2-yl)amino)methyl)-1-methyl-1H-pyrazol-4-yl)-4-methylpyrimidin-5-yl)oxy)cyclohexane-1-carboxylic acid], the 50% inhibitory concentration (IC50) worked out at 27 nM.
Same read-out and setting: then `CCCNc1nc(NCc2c(-c3ncc(O[C@H]4CCC[C@H](C(=O)O)C4)c(C)n3)cnn2C)ncc1F` [Example 37, (1S,3S)-3-((2-(5-(((5-fluoro-4-(propylamino)pyrimidin-2-yl)amino)methyl)-1-methyl-1H-pyrazol-4-yl)-4-methylpyrimidin-5-yl)oxy)cyclohexane-1-carboxylic acid], with 13 nM; and `CCNc1nc(NCc2c(-c3ncc(O[C@H]4CCC[C@H](C(=O)O)C4)c(C)n3)cnn2C)ncc1F` [Example 38, (1S,3S)-3-((2-(5-(((4-(ethylamino)-5-fluoropyrimidin-2-yl)amino)methyl)-1-methyl-1H-pyrazol-4-yl)-4-methylpyrimidin-5-yl)oxy)cyclohexane-1-carboxylic acid], with 41 nM; and `Cc1nc(-c2cnn(C)c2CNc2nccc(OCC(F)(F)C(F)F)n2)ncc1O[C@H]1CCC[C@H](C(=O)O)C1` [Example 39, (1S,3S)-3((4-methyl-2-(1-methyl-5-(((4-(2,2,3,3-tetrafluoropropoxy)pyrimidin-2-yl)amino)methyl)-1H-pyrazol-4-yl)pyrimidin-5-yl)oxy)cyclohexane-1-carboxylic acid], with 6.2 nM.
Regarding `Cc1nc(-c2cnn(C)c2CNc2nccc(OCC(F)F)n2)ncc1O[C@H]1CCC[C@H](C(=O)O)C1` [Example 40, (1S,3S)-3-((2-(5-(((4-(2,2-difluoroethoxy)pyrimidin-2-yl)amino)methyl)-1-methyl-1H-pyrazol-4-yl)-4-methylpyrimidin-5-yl)oxy)cyclohexane-1-carboxylic acid], the IC50 came to 2.7 nM.
In the case of `Cc1nc(-c2cnn(C)c2CNc2nccc(OCCCF)n2)ncc1O[C@H]1CCC[C@H](C(=O)O)C1` [Example 41, (1S,3S)-3-((2-(5-(((4-(3-fluoropropoxy)pyrimidin-2-yl)amino)methyl)-1-methyl-1H-pyrazol-4-yl)-4-methylpyrimidin-5-yl)oxy)cyclohexane-1-carboxylic acid], the IC50 came out at 7.1 nM.
On to `Cn1ncc(-c2ccc(O[C@H]3CCC[C@H](C(=O)O)C3)cn2)c1Nc1cccc(-c2cccc(F)c2)n1` [Example 42, (1S,3S)-3-{[6-(5-{[6-(3-fluorophenyl)pyridin-2-yl]amino}-1-methyl-1H-pyrazol-4-yl)pyridin-3-yl]oxy}cyclohexane-1-carboxylic acid], for which the IC50 was 137 nM.
In the case of `Cc1nc(-c2cnn(C)c2CNc2ncnc(C(C)C)n2)ncc1O[C@H]1CCC[C@H](C(=O)O)C1` [Example 43, (1S,3S)-3-((2-(5-(((4-isopropyl-1,3,5-triazin-2-yl)amino)methyl)-1-methyl-1H-pyrazol-4-yl)-4-methylpyrimidin-5-yl)oxy)cyclohexane-1-carboxylic acid], the IC50 stood at 28 nM.
Take “(1S,3S)-3-((2-(5-(((4-(2-fluoro-phenyl)pyrimidin-2-yl)amino) methyl)-1-methyl-1H-1,2,3-triazol-4-yl)-4-methylpyrimidin-5-yl)oxy)cyclohexanecarboxylic acid [Example 14]”: the IC50 is 22 nM.

The subject of the next test is IPF patients.
Assay: not given
As to conditions: 26 weeks; cited from earlier work.
For `Cc1noc(-c2ccc(-c3ccc(C4(C(=O)O)CC4)cc3)cc2)c1NC(=O)O[C@H](C)c1ccccc1` [BMS-986020], the “rate of FVC (forced vital capacity) decline” value is given as “significantly reduce the rate of FVC (forced vital capacity) decline”.

The next test concerns human foetal lung fibroblasts.
Assay: not given
The conditions noted are these: bronchoalveolar lavage samples of IPF subjects; cited from earlier work.
For `Cc1noc(-c2ccc(CSCCC(=O)O)cc2)c1NC(=O)OC(C)c1ccccc1Cl` (centres unmarked) [Ki16425], the fibroblast chemotactic activity result is reported as “inhibited”.

For another test, the system named is UUO mice.
Assay: not given
The conditions noted are these: cited from earlier work.
In the case of `Cc1noc(-c2ccc(CSCCC(=O)O)cc2)c1NC(=O)OC(C)c1ccccc1Cl` (centres unmarked) [Ki16425], the “development of renal fibrosis, profile” value is recorded as “closely resembled the profile of LPA1 (−/−) mice”.

A further test deals with mouse epithelial renal cell line, MCT.
Assay: not given
The conditions noted are these: MCT cells, co-treatment with LPA; cited from earlier work.
As to `Cc1noc(-c2ccc(CSCCC(=O)O)cc2)c1NC(=O)OC(C)c1ccccc1Cl` (centres unmarked) [Ki16425], the “induction of CTGF expression by LPA” value was “almost completely suppressed”.

The next test has as its system pancreatic cancer cell lines.
Assay: not given
As to conditions: ascites from pancreatic cancer patients; cited from earlier work.
On to `Cc1noc(-c2ccc(CSCCC(=O)O)cc2)c1NC(=O)OC(C)c1ccccc1Cl` (centres unmarked) [Ki16425], for which the “in vitro migration in response to LPA and peritoneal fluid (ascites)” value is listed as “effectively blocked”.

The subject of another test is highly peritoneal metastatic pancreatic cancer cell line.
Assay: not given
The conditions noted are these: cited from earlier work.
Turning to `Cc1noc(-c2ccc(CSCCC(=O)O)cc2)c1NC(=O)OC(C)c1ccccc1Cl` (centres unmarked) [Ki16425], the “LPA-induced and ascites-induced invasion activity” value is listed as “blocked”.

For another test, the system named is nerve-injured mice.
Assay: not given
As to conditions: pretreatment; cited from earlier work.
For `C[C@@H](N)[C@H]1CC[C@H](C(=O)Nc2ccncc2)CC1` [Example Y-27632], the allodynia and hyperalgesia result was “completely abolished”.

Source of the values: patent US11312706B2, “Cyclohexyl acid pyrazole azines as LPA antagonists” (BRISTOL-MYERS SQUIBB COMPANY, priority 2017, dated 2022).
